Source: US20170050957A1, “4-AMINO-6-(HETEROCYCLIC)PICOLINATES AND 6-AMINO-2-(HETEROCYCLIC)PYRIMIDINE-4-CARBOXYLATES AND THEIR USE AS HERBICIDES” (Dow AgroSciences LLC, priority 2013, published 2017)
Read-outs that look alike come from different tables or passages of the source.

Tests used:
[1] = system: Key Broadleaf Weed and Crop Species; experiment: Post-emergent Test II herbicidal activity (Table 15); type: in vivo; conditions: post-emergence, 336 h, 14 d; for pest or weed control at 35 g/ha: 35 g ai/ha; for pest or weed control at 70 g/ha: 70 g ai/ha; for pest or weed control at 140 g/ha: 140 g ai/ha
Description: (§1) Post-emergent Test II: Seeds or nutlets of the desired test plant species were planted in Sun Gro Metro-Mix® 360 planting mixture, which typically has a pH of 6.0 to 6.8 and an organic matter content of about 30 percent, in plastic pots with a surface area of 64 square centimeters. When required to ensure good germination and healthy plants, a fungicide treatment and/or other chemical or physical treatment was applied. The plants were grown for 7-21 d in a greenhouse with an approximate 15 h photoperiod which was maintained at about 23-29° C. during the day and 22-28° C. during the night. Nutrients and water were added on a regular basis and supplemental lighting was provided with overhead metal halide 1000-Watt lamps as necessary. The plants were employed for testing when they reached the first or second true leaf stage.
(§2) A weighed amount, determined by the highest rate to be tested, of each test compound was placed in a 25 mL glass vial and was dissolved in 4 mL of a 97:3 v/v mixture of acetone and DMSO to obtain concentrated stock solutions. […] The concentrated stock solutions obtained were diluted with 20 mL of an aqueous mixture containing acetone, water, isopropyl alcohol, DMSO, Atplus 411F crop oil concentrate, and Triton® X-155 surfactant in a 48.5:39:10:1.5:1.0:0.02 v/v ratio to obtain spray solutions containing the highest application rates. Additional application rates were obtained by serial dilution of 12 mL of the high rate solution into a solution containing 2 mL of 97:3 v/v mixture of acetone and DMSO and 10 mL of an aqueous mixture containing acetone, water, isopropyl alcohol, DMSO, Atplus 411F crop oil concentrate, and Triton X-155 surfactant in a 48.5:39:10:1.5:1.0:0.02 v/v ratio to obtain 1/2×, 1/4×, 1/8× and 1/16× rates of the high rate. Compound requirements are based upon a 12 mL application volume at a rate of 187 liters per hectare (L/ha). Formulated compounds were applied to the plant material with an overhead Mandel track sprayer equipped with 8002E nozzles calibrated to deliver 187 L/ha over an application area of 0.503 square meters at a spray height of 18 inches (43 cm) above the average plant canopy height. Control plants were sprayed in the same manner with the solvent blank.
(§3) The treated plants and control plants were placed in a greenhouse as described above and watered by subirrigation to prevent wash-off of the test compounds. After 14 d, the condition of the test plants as compared with that of the untreated plants was determined visually and scored on a scale of 0 to 100 percent where 0 corresponds to no injury and 100 corresponds to complete kill.

[2] = system: Key Grass and Sedge Weeds as well as Grass Crops; experiment: Post-emergent Test II herbicidal activity (Table 16); type: in vivo; conditions: post-emergence, 336 h; for pest or weed control at 35 g/ha: 35 g ai/ha; for pest or weed control at 35 g/ha / pest or weed control at 70 g/ha: 14 d; for pest or weed control at 70 g/ha: 70 g ai/ha; for pest or weed control at 140 g/ha: 140 g ai/ha, 14 days after application
Description: as §1, §2, §3

[3] = Abutilon theophrasti, velvetleaf (Abutilon theophrasti), read-out: Visual Growth Reduction (%) 14 Days After Application, ABUTH
[4] = Amaranthus retroflexus, redroot pigweed (Amaranthus retroflexus), read-out: Visual Growth Reduction (%) 14 Days After Application, AMARE
[5] = Brassica napus, oilseed rape, canola (Brassica napus), read-out: Visual Growth Reduction (%) 14 Days After Application, BRSNN
[6] = Chenopodium album, lambsquarters (Chenopodium album), read-out: Visual Growth Reduction (%) 14 Days After Application, CHEAL
[7] = Euphorbia heterophylla, wild poinsettia (Euphorbia heterophylla), read-out: Visual Growth Reduction (%) 14 Days After Application, EPHHL
[8] = Helianthus annuus, sunflower (Helianthus annuus), read-out: Visual Growth Reduction (%) 14 Days After Application, HELAN
[9] = Cyperus esculentus, yellow nutsedge (Cyperus esculentus), read-out: Visual Growth Reduction (%) 14 Days After Application, CYPES
[10] = Echinochloa crus-galli, barnyardgrass (Echinochloa crus-galli), read-out: Visual Growth Reduction (%) 14 Days After Application, ECHCG
[11] = Oryza sativa, rice (Oryza sativa), read-out: Visual Growth Reduction (%) 14 Days After Application, ORYSA
[12] = Setaria faberi, giant foxtail (Setaria faberi), read-out: Visual Growth Reduction (%) 14 Days After Application, SETFA
[13] = Triticum aestivum, wheat, spring (Triticum aestivum), read-out: Visual Growth Reduction (%) 14 Days After Application, TRZAS
[14] = Zea mays, maize, corn (Zea mays), read-out: Visual Growth Reduction (%) 14 Days After Application, ZEAMX
[15] = Cyperus esculentus, yellow nutsedge (Cyperus esculentus), read-out: Visual Growth Reduction (%) 14 Days After Application CYPES
[16] = Echinochloa crus-galli, barnyardgrass (Echinochloa crus-galli), read-out: Visual Growth Reduction (%) 14 Days After Application ECHCG
[17] = Oryza sativa, rice (Oryza sativa), read-out: Visual Growth Reduction (%) 14 Days After Application ORYSA
[18] = Setaria faberi, giant foxtail (Setaria faberi), read-out: Visual Growth Reduction (%) 14 Days After Application SETFA
[19] = Triticum aestivum, wheat, spring (Triticum aestivum), read-out: Visual Growth Reduction (%) 14 Days After Application TRZAS
[20] = Zea mays, maize, corn (Zea mays), read-out: Visual Growth Reduction (%) 14 Days After Application ZEAMX

melting point [°C]	Compound	pest or weed control at 35 g/ha [1, 3] [%]	pest or weed control at 70 g/ha [1, 3] [%]	pest or weed control at 35 g/ha [1, 4] [%]	pest or weed control at 70 g/ha [1, 4] [%]	pest or weed control at 35 g/ha [1, 5] [%]	pest or weed control at 70 g/ha [1, 5] [%]	pest or weed control at 35 g/ha [1, 6] [%]	pest or weed control at 70 g/ha [1, 6] [%]	pest or weed control at 35 g/ha [1, 7] [%]	pest or weed control at 70 g/ha [1, 7] [%]	pest or weed control at 35 g/ha [1, 8] [%]	pest or weed control at 70 g/ha [1, 8] [%]	pest or weed control at 140 g/ha [1, 3] [%]	pest or weed control at 140 g/ha [1, 4] [%]	pest or weed control at 140 g/ha [1, 5] [%]	pest or weed control at 140 g/ha [1, 6] [%]	pest or weed control at 140 g/ha [1, 7] [%]	pest or weed control at 140 g/ha [1, 8] [%]	pest or weed control at 140 g/ha [2, 15] [%]	also measured
209 to 211	C=Cc1c(N)nc(-c2ccc3cc[nH]c3c2F)nc1C(=O)O [Compound 1.39]	0 to 29	0 to 29	95 to 100	95 to 100	75 to 84	85 to 94	95 to 100	75 to 84	85 to 94	75 to 84	0 to 29	0 to 29	–	–	–	–	–	–	–	pest or weed control at 35 g/ha [2, 9]: 0 to 29%; pest or weed control at 70 g/ha [2, 9]: 0 to 29%; pest or weed control at 35 g/ha [2, 10]: 0 to 29%; pest or weed control at 70 g/ha [2, 10]: 0 to 29%; pest or weed control at 35 g/ha [2, 11]: 0 to 29%; pest or weed control at 70 g/ha [2, 11]: 0 to 29%; pest or weed control at 35 g/ha [2, 12]: 0 to 29%; pest or weed control at 70 g/ha [2, 12]: 0 to 29%; pest or weed control at 35 g/ha [2, 13]: 0 to 29%; pest or weed control at 70 g/ha [2, 13]: 0 to 29%; pest or weed control at 35 g/ha [2, 14]: 0 to 29%; pest or weed control at 70 g/ha [2, 14]: 0 to 29%
183 to 185	Nc1c(F)c(-c2cccc3ccsc23)nc(C(=O)O)c1Cl [Compound 3.25]	–	–	–	–	–	–	–	–	–	–	–	–	0 to 29	95 to 100	75 to 84	95 to 100	0 to 29	45 to 59	0 to 29	pest or weed control at 140 g/ha [2, 16]: 0 to 29%; pest or weed control at 140 g/ha [2, 17]: 0 to 29%; pest or weed control at 140 g/ha [2, 18]: 0 to 29%; pest or weed control at 140 g/ha [2, 19]: 0 to 29%; pest or weed control at 140 g/ha [2, 20]: 0 to 29%
182 to 184	Cn1ncc2ccc(-c3nc(C(=O)O)c(Cl)c(N)c3F)cc21 [Compound 4.08]	–	–	–	–	–	–	–	–	–	–	–	–	0 to 29	–	60 to 74	95 to 100	0 to 29	85 to 94	0 to 29	pest or weed control at 140 g/ha [2, 16]: 0 to 29%; pest or weed control at 140 g/ha [2, 17]: 0 to 29%; pest or weed control at 140 g/ha [2, 18]: 0 to 29%; pest or weed control at 140 g/ha [2, 19]: 0 to 29%; pest or weed control at 140 g/ha [2, 20]: 0 to 29%
160 to 164	Nc1c(Cl)c(C(=O)O)nc(-c2ccc3cc[nH]c3c2)c1Cl [Compound 1.06]	0 to 29	0 to 29	95 to 100	85 to 94	75 to 84	85 to 94	85 to 94	95 to 100	0 to 29	0 to 29	0 to 29	0 to 29	0 to 29	75 to 84	85 to 94	95 to 100	0 to 29	0 to 29	–	–
